# Where a name gives a salt, the structure may show the parent alone.
# Legend:
# Assay type in all cases: cell-based, human
# [1] = test system: LNCAP prostate adenocarcinoma cells; assay: KI library screen for TRAIL sensitization
# Excerpt: (§1) A library of KIs was screened for TRAIL sensitization in various TRAIL-resistant cancer cells, including: HT29 (CRC), MDA-MB-231 (breast), LNCAP (prostate), DU145 (prostate), PC3 (prostate) and A549 (lung). […] The 355 KIs comprised of compounds targeting diverse kinases, including multi kinases, RTK (receptor kinase tyrosine), PI3K (phosphinistide 3-kinase), aurora kinases, including […] (mitogen-activated protein kinase). […] The interaction between KIs and TRAIL had been previously explored in vitro with the tyrosine KI sorafenib, a drug similar to regorafenib. However, such studies were mostly performed on cellular levels and not in in vivo models, combined with systemically administered recombinant TRAIL. Although a similar structure, regorafenib was newly approved in 2012. The interactions between the three other selected KIs and TRAIL have not been previously reported, in vitro or in vivo.
# [2] = test system: MDA-MB-231 breast cancer cells; assay: KI library screen for TRAIL sensitization
# Excerpt: as §1
# [3] = test system: A549 lung carcinoma cells; assay: KI library screen for TRAIL sensitization
# Excerpt: as §1
# HT29 (CRC) cells = assay: KI library screen for TRAIL sensitization (KI pretreatment, then TRAILPEG; MTT cell death assay); details: for efficacy when combined with TRAILPEG (relative cell death, KI+TRAILPEG / KI alone): HT29 cells pretreated with KI for 24 hours before TRAILPEG; for KIs that sensitize cancer cells to TRAIL-based agents: HT-29 colorectal adenocarcinoma
# Experimental: The screening is performed using an MTT cell death assay in CRC cells with different TRAIL sensitivities.
compound,measurement,setting,value
CNC(=O)c1ccc(-c2cnc3ncc(Cc4ccc5ncccc5c4)n3n2)cc1F [INCB28060],KIs that sensitize cancer cells to TRAIL-based agents,[1],Example KIs that sensitize cancer cells to TRAIL-based agents.
"CNC(=O)c1nn(C)c2c1C(C)(C)Cc1cnc(Nc3ccc(N4CCN(C)CC4)cc3)nc1-2 [Milciclib (PHA-848125), Milciclib]",KIs that sensitize cancer cells to TRAIL-based agents,[2],Example KIs that sensitize cancer cells to TRAIL-based agents.
Cc1ncc(-c2ccnc(Nc3ccc(S(C)(=O)=O)cc3)n2)n1C(C)C [AZD5438],KIs that sensitize cancer cells to TRAIL-based agents,[3],Example KIs that sensitize cancer cells to TRAIL-based agents.
N#CC1(c2ccc(NC(=O)c3cccnc3NCc3ccncc3)cc2)CCCC1 [Apatinib],KIs that sensitize cancer cells to TRAIL-based agents,[3],Example KIs that sensitize cancer cells to TRAIL-based agents.
O=C(NC1CCNCC1)c1[nH]ncc1NC(=O)c1c(Cl)cccc1Cl [AT7519],KIs that sensitize cancer cells to TRAIL-based agents,[3],Example KIs that sensitize cancer cells to TRAIL-based agents.
CN1CC[C@H](c2c(O)cc(O)c3c(=O)cc(-c4ccccc4Cl)oc23)[C@H](O)C1 [Flavopiridol HCl],KIs that sensitize cancer cells to TRAIL-based agents,[3],Example KIs that sensitize cancer cells to TRAIL-based agents.
same,KIs that sensitize cancer cells to TRAIL-based agents,[2],Example KIs that sensitize cancer cells to TRAIL-based agents.
"CC[C@@H]1C(=O)N(C)c2cnc(Nc3ccc(C(=O)N[C@H]4CC[C@H](N5CCN(CC6CC6)CC5)CC4)cc3OC)nc2N1C(C)C [Volasertib (BI 6727), Volasertib]",KIs that sensitize cancer cells to TRAIL-based agents,[2],Example KIs that sensitize cancer cells to TRAIL-based agents.
N#CCNC(=O)c1ccc(-c2ccnc(Nc3ccc(N4CCOCC4)cc3)n2)cc1 [CYT387],KIs that sensitize cancer cells to TRAIL-based agents,[2],Example KIs that sensitize cancer cells to TRAIL-based agents.
"CS(=O)(=O)CCNCc1ccc(-c2ccc3ncnc(Nc4ccc(OCc5cccc(F)c5)c(Cl)c4)c3c2)o1 [Lapatinib (GW-572016) Ditosylate, Lapatinib]",KIs that sensitize cancer cells to TRAIL-based agents,[3],Example KIs that sensitize cancer cells to TRAIL-based agents.
same,KIs that sensitize cancer cells to TRAIL-based agents,[1],Example KIs that sensitize cancer cells to TRAIL-based agents.
Cc1cc(Nc2cc(CN3CCOCC3)c3nc(C)c(Cc4ccc(Cl)cc4F)n3n2)n[nH]1 [LY2784544],KIs that sensitize cancer cells to TRAIL-based agents,[2],Example KIs that sensitize cancer cells to TRAIL-based agents.
COc1cccc(-c2cc(=O)c3ccccc3o2)c1N [PD98059],"efficacy when combined with TRAILPEG (relative cell death, KI+TRAILPEG / KI alone)",HT29 (CRC) cells,synergistic efficacy
same,KIs that sensitize cancer cells to TRAIL-based agents,HT29 (CRC) cells,Example KIs that sensitize cancer cells to TRAIL-based agents.
Cc1cc(Nc2cc(N3CCN(C)CC3)nc(/C=C/c3ccccc3)n2)n[nH]1 [ENMD-2076],"efficacy when combined with TRAILPEG (relative cell death, KI+TRAILPEG / KI alone)",HT29 (CRC) cells,synergistic efficacy
same,KIs that sensitize cancer cells to TRAIL-based agents,HT29 (CRC) cells,Example KIs that sensitize cancer cells to TRAIL-based agents.
Cc1cnc(Nc2ccc(N3CCN(C)CC3)cc2)nc1Nc1cccc(S(=O)(=O)NC(C)(C)C)c1 [TG101209],KIs that sensitize cancer cells to TRAIL-based agents,[2],Example KIs that sensitize cancer cells to TRAIL-based agents.
O=C(Nc1ccc(OC(F)(F)F)cc1)c1sccc1NCc1ccnc2ccccc12 [OSI-930],"efficacy when combined with TRAILPEG (relative cell death, KI+TRAILPEG / KI alone)",HT29 (CRC) cells,synergistic efficacy
same,KIs that sensitize cancer cells to TRAIL-based agents,HT29 (CRC) cells,Example KIs that sensitize cancer cells to TRAIL-based agents.
"C[C@]1(O)C[C@@H](c2nc(-c3ccc4ccc(-c5ccccc5)nc4c3)c3c(N)nccn32)C1 [OSI-906 (Linsitinib), Linsitinib]",KIs that sensitize cancer cells to TRAIL-based agents,[1],Example KIs that sensitize cancer cells to TRAIL-based agents.
CCS(=O)(=O)c1cccc(-c2cc(C(=O)NC3CCN(C)CC3)c(C)c3[nH]c4ncc(C)cc4c23)c1 [TAK-901],KIs that sensitize cancer cells to TRAIL-based agents,[2],Example KIs that sensitize cancer cells to TRAIL-based agents.
CC(C)(C)c1cnc(CSc2cnc(NC(=O)C3CCNCC3)s2)o1 [SNS-032 (BMS-387032)],KIs that sensitize cancer cells to TRAIL-based agents,[3],Example KIs that sensitize cancer cells to TRAIL-based agents.
same,KIs that sensitize cancer cells to TRAIL-based agents,[2],Example KIs that sensitize cancer cells to TRAIL-based agents.
CHIR-98014,KIs that sensitize cancer cells to TRAIL-based agents,[2],Example KIs that sensitize cancer cells to TRAIL-based agents.
O=C1NCCc2[nH]c(-c3ccncc3)cc21 [PHA-767491],KIs that sensitize cancer cells to TRAIL-based agents,[2],Example KIs that sensitize cancer cells to TRAIL-based agents.
Cc1cc(CN2CCN(c3c(Br)cnc4nc(-c5ccc(N6CCN(C)CC6)cc5)[nH]c34)CC2)no1 [CCT137690],KIs that sensitize cancer cells to TRAIL-based agents,[2],Example KIs that sensitize cancer cells to TRAIL-based agents.
COc1cc2ncnc(Nc3ccc(Cl)cc3F)c2cc1OC [ZM 306416],KIs that sensitize cancer cells to TRAIL-based agents,[1],Example KIs that sensitize cancer cells to TRAIL-based agents.
CN(c1ncccc1CNc1nc(Nc2ccc3c(c2)CC(=O)N3)ncc1C(F)(F)F)S(C)(=O)=O [PF-00562271],KIs that sensitize cancer cells to TRAIL-based agents,[2],Example KIs that sensitize cancer cells to TRAIL-based agents.
"CC[C@H](Nc1ncnc2[nH]cnc12)c1nc2cccc(F)c2c(=O)n1-c1ccccc1 [CAL-101 (Idelalisib, GS-1101), Idelalisib]","efficacy when combined with TRAILPEG (relative cell death, KI+TRAILPEG / KI alone)",HT29 (CRC) cells,synergistic efficacy
same,KIs that sensitize cancer cells to TRAIL-based agents,HT29 (CRC) cells,Example KIs that sensitize cancer cells to TRAIL-based agents.
Cc1ccc([N+](=O)[O-])cc1S(=O)(=O)N(C)/N=C/c1cnc2ccc(Br)cn12 [PIK-75],KIs that sensitize cancer cells to TRAIL-based agents,[2],Example KIs that sensitize cancer cells to TRAIL-based agents.
CCO.N#CC(=C(/N)Sc1ccccc1N)/C(C#N)=C(\N)Sc1ccccc1N [U0126-EtOH],"efficacy when combined with TRAILPEG (relative cell death, KI+TRAILPEG / KI alone)",HT29 (CRC) cells,synergistic efficacy
same,KIs that sensitize cancer cells to TRAIL-based agents,HT29 (CRC) cells,Example KIs that sensitize cancer cells to TRAIL-based agents.
Cc1[nH]nc2ccc(-c3cncc(OC[C@@H](N)Cc4ccccc4)c3)cc12 [A-674563],KIs that sensitize cancer cells to TRAIL-based agents,[2],Example KIs that sensitize cancer cells to TRAIL-based agents.
COc1cc2ncc(-c3ccccc3)nc2cc1OC [Tyrphostin AG 1296],KIs that sensitize cancer cells to TRAIL-based agents,[1],Example KIs that sensitize cancer cells to TRAIL-based agents.
Cc1cc(Nc2nc(N[C@@H](C)c3ccc(F)cc3)c(C#N)cc2F)[nH]n1 [AZ 960],KIs that sensitize cancer cells to TRAIL-based agents,[2],Example KIs that sensitize cancer cells to TRAIL-based agents.
"CC[C@H](CO)Nc1nc(NCc2ccccc2)c2ncn(C(C)C)c2n1 [Roscovitine (Seliciclib, CYC202), Roscovitine]",KIs that sensitize cancer cells to TRAIL-based agents,[2],Example KIs that sensitize cancer cells to TRAIL-based agents.
CCN(CC)CCNC(=O)c1c(C)[nH]c(/C=C2\C(=O)Nc3ccc(F)cc32)c1C [Sunitinib Malate],KIs that sensitize cancer cells to TRAIL-based agents,[1],Example KIs that sensitize cancer cells to TRAIL-based agents.
CCN1CCN(c2ccc(Nc3cc(N(C)C(=O)Nc4c(Cl)c(OC)cc(OC)c4Cl)ncn3)cc2)CC1 [BGJ398 (NVP-BGJ398)],KIs that sensitize cancer cells to TRAIL-based agents,[3],Example KIs that sensitize cancer cells to TRAIL-based agents.
O=c1[nH]c2ccc(Cl)cc2c(N[C@@H]2CN3CCC2CC3)c1-c1nc2ccccc2[nH]1 [CHIR-124],KIs that sensitize cancer cells to TRAIL-based agents,[3],Example KIs that sensitize cancer cells to TRAIL-based agents.
same,KIs that sensitize cancer cells to TRAIL-based agents,[2],Example KIs that sensitize cancer cells to TRAIL-based agents.
"Cn1c(=O)n(-c2ccc(C(C)(C)C#N)cc2)c2c3cc(-c4cnc5ccccc5c4)ccc3ncc21 [BEZ235 (NVP-BEZ235, Dactolisib), Dactolisib]","efficacy when combined with TRAILPEG (relative cell death, KI+TRAILPEG / KI alone)",HT29 (CRC) cells,synergistic efficacy
same,KIs that sensitize cancer cells to TRAIL-based agents,HT29 (CRC) cells,Example KIs that sensitize cancer cells to TRAIL-based agents.
"C=CC(=O)Nc1cc2c(Nc3ccc(F)c(Cl)c3)ncnc2cc1OCCCN1CCOCC1 [Canertinib (CI-1033), Canertinib]",KIs that sensitize cancer cells to TRAIL-based agents,[2],Example KIs that sensitize cancer cells to TRAIL-based agents.
CCCCOc1c(C(=O)c2c(F)cc(C)cc2F)c[nH]c2nncc1-2 [BMS-265246],KIs that sensitize cancer cells to TRAIL-based agents,[3],Example KIs that sensitize cancer cells to TRAIL-based agents.
same,KIs that sensitize cancer cells to TRAIL-based agents,[2],Example KIs that sensitize cancer cells to TRAIL-based agents.
CCc1cc(Nc2nccc(-c3c(-c4ccc(OC)c(C(=O)Nc5c(F)cccc5F)c4)nc4ccccn34)n2)c(OC)cc1N1CCC(N2CCN(S(C)(=O)=O)CC2)CC1 [GSK1904529A],KIs that sensitize cancer cells to TRAIL-based agents,[3],Example KIs that sensitize cancer cells to TRAIL-based agents.
"CCOc1cc2ncc(C#N)c(Nc3ccc(F)c(Cl)c3)c2cc1NC(=O)/C=C/CN(C)C [Pelitinib (EKB-569), Pelitinib]",KIs that sensitize cancer cells to TRAIL-based agents,[2],Example KIs that sensitize cancer cells to TRAIL-based agents.
CC(C)CC(=O)Nc1[nH]nc2c1CN(C(=O)C1CCN(C)CC1)C2(C)C [PHA-793887],KIs that sensitize cancer cells to TRAIL-based agents,[2],Example KIs that sensitize cancer cells to TRAIL-based agents.

# — patent US20210169984A1, “SENSITIZING CANCER TO DEATH RECEPTOR AGONISTS WITH KINASE INHIBITORS” (The Johns Hopkins University, priority 2016, published 2021)
